Results reported in patent EP0715517B1, “ESTRENE STEROIDS AS NEU[…] CHANGE IN HUMAN HY[…] AND RELATED PHARMACEUTICAL COMPOSITIONS” (priority 1993, dated 1994).
Entries after “also recorded” stand apart in the source; their conditions may differ.

How the values were obtained:
[1] = test system: VNO; assay: Electro-vomeronasogram (EVG) (Example 25); format: in vivo, human; conditions: male subjects (ages 20 to 38); 100 fmoles; 1 second pulses; p<0.01; Fig. 6A
Protocol: The following electrophysiological studies were performed in 60 clinically normal human volunteers of both sexes (30 male and 30 female) whose ages ranged from 20 to 45 years. No anesthetics were used, and female subjects were excluded if pregnant.
The stimulation and recording system consists of a "multifunctional miniprobe" described elsewhere (Monti-Bloch, L. and Grosser, B.l. (1991) "Effect of putative pheromones on the electrical activity of the human vomeronasal organ and olfactory epithelium," J. Steroid Biochem. Molec. Biol. 39:573-582.). The recording electrode is a 0.3 mm silver ball attached to a small (0.1 mm) silver wire insulated with Teflon© the surface of the electrode is first treated to produce a silver chloride interface, and is then covered with gelatin It is positioned within a small caliber Teflon© catheter (dia = […]) such that the tip of the electrode protrudes approximately 2 mm. The Teflon© catheter is 10 cm in length and constitutes the terminal extension for a multichannel delivery system which delivers a continuous air stream carrying discreet pulses of chemosensory stimuli. The air stream first passes into a small chamber and is bubbled through a solution containing either a vomeropherin or an olfactant in a diluent or the diluent alone. A solenoid is used to rapidly redirect the air stream from the chamber to a route which bypasses the chamber. This creates a discreet pulse of stimulant in the air stream. A second, outer Teflon® tube with a diameter of 2 mm surrounds the catheter-electrode assemblage, and its central end is connected to an aspirator that provides continuous suction of 3ml/s. This concentric arrangement of the outer suction tube allows the emitted chemosensory stimuli to be localized to an area we call a "minifield" (approx. dia = 1 mm), and it avoids diffusion of substances either to the area outside the intended stimulation site or into the respiratory system. The entire stimulating and recording assemblage may be positioned either on the neurosensory epithelium within the VNO, or on the surface of the olfactory or respiratory epithelium. Electro-vomeronasogram (EVG): Recordings are carried out in a quiet room with the subject supine; the multifunctional miniprobe is initially stabilized within the nasal cavity using a nasal retractor placed in the vestibule. Reference and ground electrodes consist of silver discs (8 mm), both of which are positioned on the glabella.
The entrance to the VNO, or vomeronasal pit, is identified by first dilating the nasal aperture and vestibule. A 6x magnifying binocular loupe with halogen illumination is then used to introduce the tip of the Teflon® catheter and recording electrode assemblage into the VNO opening where it is stabilized at an approximate depth of 1 mm within the vomeronasal passage. Optimal placement of the recording electrode is signaled after testing for an adequate depolarization in response to a test substance.
Electrical signals from the recording electrode are fed to a DC amplifier after which they are digitized, computer monitored, and stored. The peak-to-peak amplitude of the signals is measured, and the area under the depolarization wave is integrated, while continuously monitoring the signal both on the computer screen and on a digital oscilloscope. Artifacts produced by respiratory movements are deleted by training the subjects to practice mouth breathing with velopharyngeal closure. Chemosensory Stimulants: Olfactory test substances are cineole, and 1-carvone; vomeropherins are A, B, C, E and F. (Vomeropherins were supplied by Pherin Corporation, Menlo Park, California), Samples of vomeropherins In concentration of 25-800 fmoles are delivered in the continuous air stream for durations from 300 milliseconds to 1 second. Usually, intervals of 3 to 5 minutes separated each series of short test pulses. […]

[2] = test system: VNO; assay: Skin temperature (ST) after VNO stimulation (Example 25); format: in vivo, human; conditions: 30 male subjects; p<0.01; Fig. 6G
Protocol: (§1) Cortical evoked activity was induced by VNO stimulation with vomeropherins, and olfactory stimulation with odorants delivered in 300 ms air pulses. It was recorded using standard electroencephalographic (EEG) electrodes placed at positions Cz-A1 and Tz-A1 of the international […] system; the ground electrode was placed on the mastoid process. Electrodermal activity (EDA) was recorded using standard 8 mm silver electrodes in contact with palmar skin of the medial and ring fingers respectively, through a conductive gel interface. Skin temperature (ST) was recorded by a small (1.0 mm) thermistor probe placed in the right ear lobe. Peripheral arterial pulse (PAP) was monitored with a plethysmograph attached to the tip of the index finger. Respiratory frequency (RF) was measured with an adjustable strain gauge placed around the lower thorax. All electrical signals were DC amplified, digitized (MP-100, Biopac Systems) and continuously monitored utilizing a computer. Statistical Analysis: EVGs or EOGS, peak-to-peak changes and frequency changes of other parameters were measured and statistically analyzed. The significance of the results was determined by either using paired t-tests or analysis of variance (ANOVA). […] Recordings of the EVG were performed on 30 men and 30 women (ages 20 to 45). Vomeropherins were diluted and applied as 1 second pulses to the VNO with […] intervals between pulses when questioned, the subjects were not able to "smell" or otherwise consciously detect any of the vomeropherins.

[3] = test system: VNO; assay: Comparison of the change in receptor potential induced by two Estrene steroids (Example 23); format: in vivo, human; conditions: 60 picograms; a subject; Fig. 5
Protocol: 60 picograms of each steroid and of a propylene glycol control were administered to a subject as described in Example 21.

[4] = test system: VNO; assay: Cortical evoked activity (EEG, alpha cortical activity) after VNO stimulation (Example 25); format: in vivo, human; conditions: males, 200 fmoles, Fig. 6E
Protocol: as §1
[…] […] Synchronization of the EEG was sustained for 1.5 to 2.7 minutes after application of a single pulse of active substance.

[5] = test system: VNO; conditions: 2% lidocaine applied to the respiratory epithelium of the nasal septum; preliminary evidence, Monti-Bloch and Grosser 1991; cited from earlier work

SMILES | EVG average response (mean) [1] [mV] | skin temperature (ST) [2] | change in receptor potential [3] | alpha cortical activity ([4]; air pulses 300 ms to 1 sec) | latency of increase in alpha cortical activity [4] [ms] | effect of local anesthetic on the EVG [5]
COc1ccc2c(c1)CC[C@@H]1[C@@H]2CC[C@]2(C)C=CC[C@@H]12 [D, 3-Methoxy-Estra-1,3,5(10),16-tetraene] | 15.1 | significant temperature decrease | greater change in receptor potential than did 1,3,5(10),16-Estratetraen-3-yl acetate | significantly increased alpha cortical activity; also recorded: strongest effect | 270 to 380 | –
CCN(CC)CC(=O)Nc1c(C)cccc1C [lidocaine] | – | – | – | – | – | neither blocks nor diminishes the EVG
